# Measured values taken from US6653300B2, “Pyrazole compounds useful as protein kinase inhibitors” (Vertex Pharmaceuticals Incorporated, priority 2000, dated 2003).
# Experiments:
# Aurora-2 = molecular target: T1, Aurora-2 (Homo sapiens, UniProt O14965); assay: Ki determination for the inhibition of Aurora-2 (coupled enzyme assay); assay type: biochemical; settings: 70 nM Aurora-2, 30° C.
# T1 sequence (O14965 1-403): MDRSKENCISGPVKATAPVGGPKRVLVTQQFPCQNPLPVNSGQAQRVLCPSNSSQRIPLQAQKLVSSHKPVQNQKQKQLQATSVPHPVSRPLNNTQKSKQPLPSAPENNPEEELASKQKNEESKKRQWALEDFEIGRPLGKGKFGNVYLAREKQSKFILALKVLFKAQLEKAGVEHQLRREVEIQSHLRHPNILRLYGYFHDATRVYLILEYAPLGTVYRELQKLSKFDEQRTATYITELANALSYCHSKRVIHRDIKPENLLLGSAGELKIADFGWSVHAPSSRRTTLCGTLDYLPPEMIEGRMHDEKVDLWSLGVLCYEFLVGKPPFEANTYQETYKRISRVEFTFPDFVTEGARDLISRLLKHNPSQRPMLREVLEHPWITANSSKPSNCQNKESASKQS
# Procedure: Compounds were screened in the following manner for their ability to inhibit Aurora-2 using a standard coupled enzyme assay (Fox et al (1998) Protein Sci 7, 2249).
# To an assay stock buffer solution containing 0.1M HEPES 7.5, 10 mM MgCl2, 1 mM DTT, 25 mM NaCl, 2.5 mM phosphoenolpyruvate, […], 30 mg/ml pyruvate kinase, 10 mg/ml lactate dehydrogenase, […], and 800 μM peptide (LRRASLG, American Peptide, Sunnyvale, Calif.) was added a DMSO solution of a compound of the present invention to a final concentration of 30 μM. The resulting mixture was incubated at 30° C. for 10 min. The reaction was initiated by the addition of 10 μL of Aurora-2 stock solution to give a final concentration of 70 nM in the assay. The rates of reaction were obtained by monitoring absorbance at 340 nm over a 5 minute read time at 30° C. using a BioRad Ultramark plate reader (Hercules, Calif.). The Ki values were determined from the rate data as a function of inhibitor concentration.
# GSK-3β (AA 1-420) = molecular target: T2, GSK-3β (AA 1-420) (Homo sapiens, UniProt P49841); assay: Ki determination for the inhibition of GSK-3 (coupled enzyme system); assay type: biochemical; settings: 20 μM ATP, 20 nM GSK-3β, 30° C.
# T2 construct: GSK-3β (AA 1-420)
# Procedure: Compounds were screened for their ability to inhibit GSK-3β (AA 1-420) activity using a standard coupled enzyme system (Fox et al. (1998) Protein Sci. 7, 2249). Reactions were carried out in a solution containing 100 mM HEPES (pH 7.5), 10 mM MgCl2, 25 mM NaCl, 300 μM NADH, 1 mM DTT and 1.5% DMSO. Final substrate concentrations in the assay were 20 μM ATP (Sigma Chemicals, St Louis, Mo.) and 300 μM peptide (HSSPHQS (PO3H2) EDEEE, American Peptide, Sunnyvale, Calif.). Reactions were carried out at 30° C. and 20 nM GSK-3β. Final concentrations of the components of the coupled enzyme system were 2.5 mM phosphoenolpyruvate, 300 μM NADH, 30 μg/ml pyruvate kinase and 10 μg/ml lactate dehydrogenase.
# An assay stock buffer solution was prepared containing all of the reagents listed above with the exception of ATP and the test compound of interest. The assay stock buffer solution (175 μl) was incubated in a 96 well plate with 5 μl of the test compound of interest at final concentrations spanning 0.002 μM to 30 μM at 30° C. for 10 min. […] The reaction was initiated by the addition of 20 μl of ATP (final concentration 20 μM). Rates of reaction were obtained using a Molecular Devices Spectramax plate reader (Sunnyvale, Calif.) over 10 min at 30° C. The Ki values were determined from the rate data as a function of inhibitor concentration.
# T2 sequence (P49841 whole entry, the tested form may be a part): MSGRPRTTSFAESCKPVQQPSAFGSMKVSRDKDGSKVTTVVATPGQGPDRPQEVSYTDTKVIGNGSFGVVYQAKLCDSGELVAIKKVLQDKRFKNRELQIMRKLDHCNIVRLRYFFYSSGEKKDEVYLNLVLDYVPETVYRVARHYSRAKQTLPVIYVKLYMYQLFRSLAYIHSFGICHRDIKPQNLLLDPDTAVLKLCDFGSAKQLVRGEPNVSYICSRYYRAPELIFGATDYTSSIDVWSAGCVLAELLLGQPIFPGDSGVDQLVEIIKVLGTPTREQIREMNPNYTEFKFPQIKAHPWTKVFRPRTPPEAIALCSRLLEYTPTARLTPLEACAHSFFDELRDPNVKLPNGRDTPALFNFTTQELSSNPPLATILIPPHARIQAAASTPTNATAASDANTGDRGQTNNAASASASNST
Compound,Ki (Aurora-2) [nM],Ki (GSK-3β (AA 1-420)) [nM],melting point [°C]
Cc1cc(Nc2cc(-c3ccccc3)nc(Oc3ccc(NC(=O)C4CC4)cc3)n2)n[nH]1 [IIIb-16],100 to 1000,100 to 1000,
"FC(F)(F)c1cccc(Nc2nc(Nc3n[nH]c4ccccc34)c3ccccc3n2)c1 [IIc-71, (1H-Indazol-3-yl)-[2-(3-trifluoromethylphenylamino)-quinazolin-4-yl]-amine]",1000 to 10000,1000 to 7000,
"Cc1cc(Nc2cc(-c3ccco3)[nH]n2)nc(Nc2ccc(Cl)cc2)n1 [IIIc-9, [2-(4-Chlorophenyl)amino-6-methyl-pyrimidin-4-yl]-[5-(furan-2-yl)-2H-pyrazol-3-yl]-amine]",100 to 1000,< 100,
"c1ccc(CCNc2nc(Nc3cc(C4CC4)[nH]n3)c3ccccc3n2)cc1 [IIc-28, (5-Cyclopropyl-2H-pyrazol-3-yl)-(2-phenetylamino-quinazolin-4-yl)-amine]",< 100,100 to 1000,
CCc1cc(Nc2cc(C)[nH]n2)nc(C(C)(C)c2ccccc2)n1 [IIId-20],100 to 1000,< 100,
"CSc1nc(Nc2cc(C)[nH]n2)cc(N2CCN(C)CC2)n1 [IIIa-14, [6-(4-Methylpiperazin-1-yl)-2-methylsulfanyl-pyrimidin-4-yl]-(5-methyl-2H-pyrazol-3-yl)-amine]",100 to 1000,,
"Cc1cc(Nc2cc(N3CCOCC3)nc(SCc3ccc4ccccc4c3)n2)n[nH]1 [IIIa-42, (5-Methyl-2H-pyrazol-3-yl)-[6-morpholin-4-yl-2-(naphthalene-2-ylmethylsulfanyl)-pyrimidin-4-yl]-amine]",1000 to 10000,100 to 1000,
"Cc1cc(Nc2nc(COc3ccc(Cl)cc3)nc3c2CCCC3)n[nH]1 [IId-6, [2-(4-Chlorophenoxymethyl)-5,6,7,8-tetrahydro-quinazolin-4-yl]-(5-methyl-2H-pyrazol-3-yl)-amine]",100 to 1000,100 to 1000,
c1ccc2cc(Oc3nc(Nc4cc(C5CC5)[nH]n4)cc(N4CCOCC4)n3)ccc2c1 [IIIb-7],100 to 1000,100 to 1000,
"COc1ccc(-c2cc(Nc3cc(C)[nH]n3)nc(Sc3ccc(NC(C)=O)cc3)n2)cc1 [IIIa-22, [2-(4-Acetamido-phenyl-sulfanyl)-6-(4-methoxyphenyl)-pyrimidin-4-yl]-(5-methyl-2H-pyrazol-3-yl)-amine]",,100 to 1000,241 to 245
"COCCNc1cc(Nc2cc(C)[nH]n2)nc(SCc2cccc(Cl)c2)n1 [IIIa-27, [2-(3-Chloro-benzylsulfanyl)-6-(2-methoxy-ethylamino)-pyrimidin-4-yl]-(5-methyl-2H-pyrazol-3-yl)-amine]",,< 100,101 to 102
"CCc1cc(Nc2cc(C)[nH]n2)nc(Nc2ccc(Cl)cc2)n1 [IIIc-12, [2-(4-Chlorophenyl)amino-6-ethyl-pyrimidin-4-yl]-(5-methyl-2H-pyrazol-3-yl)-amine]",< 100,< 100,
CN1CCN(c2cc(Nc3cc(C4CC4)[nH]n3)nc(Oc3ccc4ccccc4c3)n2)CC1 [IIIb-8],1000 to 10000,,
COc1nc(Nc2cc(C)[nH]n2)cc(N2CCN(C)CC2)n1 [IIIb-14],1000 to 10000,< 100,
"CC(=O)Nc1ccc(Sc2nc(Nc3cc(C)[nH]n3)cc(-c3cccc(NC(C)=O)c3)n2)cc1 [IIIa-23, [6-(3-Acetamidophenyl)-2-(4-acetamido-phenyl-sulfanyl)-pyrimidin-4-yl]-(5-methyl-2H-pyrazol-3-yl)-amine]",,100 to 1000,227 to 230
"CC(=O)Nc1ccc(Sc2nc(Nc3cc(C)[nH]n3)c3ccc(NO)cc3n2)cc1 [IIa-56, [2-(4-Acetamido-phenylsulfanyl)-7-hydroxyaminoquinazolin-4-yl]-(5-methyl-2H-pyrazol-3-yl)-amine]",< 100,,
"CCCS(=O)(=O)Nc1ccc(Sc2nc(Nc3cc(C)n[nH]3)cc(-c3ccccc3)n2)cc1 [IIIa-17, (5-Methyl-2H-pyrazol-3-yl)-{6-phenyl-2-[4-(propane-1-sulfonylamino)-phenylsulfanyl]-pyrimidin-4-yl}-amine]",,< 100,232 to 235
Cc1cc(Nc2cc(-c3c(C)cccc3C)nc(Oc3ccc4ccccc4c3)n2)n[nH]1 [IIIb-9],1000 to 10000,,
"c1ccc2cc(Sc3nc(Nc4cc(C5CC5)[nH]n4)cc(N4CCOCC4)n3)ccc2c1 [IIIa-7, (5-Cyclopropyl-2H-pyrazol-3-yl)-[6-(morpholin-4-yl)-2-(naphthalen-2-ylsulfanyl)-pyrimidin-4-yl]-amine]",,100 to 1000,118 to 120
COC(=O)c1cccc(Oc2nc(Nc3cc(C4CC4)[nH]n3)cc(-c3ccccc3)n2)c1 [IIIb-2],100 to 1000,,
"Cc1cc(Nc2cc(N3CCOCC3)nc(SCc3cccc(Cl)c3)n2)n[nH]1 [IIIa-26, [2-(3-Chloro-benzylsulfanyl)-6-morpholin-4-yl-pyrimidin-4-yl]-(5-methyl-2H-pyrazol-3-yl)-amine]",,100 to 1000,224 to 225

# The remaining lines, values ahead:
Ki (Aurora-2) [nM],Ki (GSK-3β (AA 1-420)) [nM],melting point [°C],Compound
< 100,,,"CC(=O)Nc1ccc(Sc2nc(Nc3cc(C)[nH]n3)c3ccc([N+](=O)[O-])cc3n2)cc1 [IIa-53, [2-(4-Acetamido-phenylsulfanyl)-7-nitroquinazolin-4-yl]-(5-methyl-2H-pyrazol-3-yl)-amine]"
< 100,1000 to 7000,,"COc1ccc(Sc2nc(Nc3cc(C4CC4)[nH]n3)c3ccccc3n2)cc1OC [IIa-25, (5-Cyclopropyl-2H-pyrazol-3-yl)-[2-(3,4-dimethoxyphenylsulfanyl)-quinazolin-4-yl]-amine]"
1000 to 10000,100 to 1000,,"FC(F)(F)c1ccccc1Nc1nc(Nc2n[nH]c3ccccc23)c2ccccc2n1 [IIc-76, (1H-Indazol-3-yl)-[2-(2-trifluoromethylphenylamino)-quinazolin-4-yl]-amine]"
1000 to 10000,1000 to 7000,,"CCc1cc(Nc2cc(C)[nH]n2)nc(Nc2nc3ccccc3[nH]2)n1 [IIIc-10, [2-(Benzimidazol-2-ylamino-)6-ethyl-pyrimidin-4-yl]-(5-methyl-2H-pyrazol-3-yl)-amine]"
100 to 1000,< 100,,"Cc1cc(Nc2cc(-c3ccccc3)[nH]n2)nc(Nc2ccc(Cl)cc2)n1 [IIIc-11, [2-(4-Chlorophenyl)amino-6-methyl-pyrimidin-4-yl]-(5-phenyl-2H-pyrazol-3-yl)-amine]"
100 to 1000,,,c1ccc(-c2cc(Nc3cc(C4CC4)[nH]n3)nc(Oc3ccc4ccccc4c3)n2)cc1 [IIIb-1]
< 100,< 100,,"c1ccc(Nc2nc(Nc3cc(-c4ccco4)[nH]n3)cc(-c3ccccc3)n2)cc1 [IIIc-15, [5-(Furan-2-yl)-2H-pyrazol-3-yl]-(6-phenyl-2-phenylamino-pyrimidin-4-yl)-amine]"
100 to 1000,100 to 1000,,CCC(=O)Nc1ccc(Oc2nc(Nc3cc(C)[nH]n3)cc(-c3ccccc3)n2)cc1 [IIIb-15]
,100 to 1000,211 to 214,"Cc1cc(Nc2cc(-c3ccccc3C)nc(Sc3ccc4ccccc4c3)n2)n[nH]1 [IIIa-10, [6-(2-Methylphenyl)-2-(naphthalen-2-ylsulfanyl)-pyrimidin-4-yl]-(5-methyl-2H-pyrazol-3-yl)-amine]"
< 100,1000 to 7000,,"COc1ccc(Nc2nc(Nc3cc(C)[nH]n3)c3ccccc3n2)cc1-c1ccccc1 [IIc-58, [2-(2-Methoxybiphenyl-5-ylamino)-quinazolin-4-yl]-(5-methyl-2H-pyrazol-3-yl)-amine]"
1000 to 10000,100 to 1000,,"Clc1ccccc1Nc1nc(Nc2n[nH]c3ccccc23)c2ccccc2n1 [IIc-75, [2-(2-Chloro-phenyl)-amino-quinazolin-4-yl]-(1H-indazol-3-yl)-amine]"
